# Source: US8222281B2, “Carboxylic acid compound” (Daiichi Sankyo Company, Limited, priority 2008, dated 2012)
# System: genetically obese impaired glucose tolerance rats (Crlj:ZUC-Lepr^fa/Lepr^fa rats)
# Test: Oral glucose tolerance test
# Format: in vivo
# Details: Rattus norvegicus, 0.5 h, glucose 2 g/kg oral 30 minutes after compound, blood glucose 30 minutes after glucose loading, vs control group, read-out: Blood glucose lowering index (%); for inhibition in vivo at 0.3 mg/kg: dose 0.3 mg/kg oral; for inhibition in vivo at 1 mg/kg: dose 1 mg/kg oral
# Experimental: Oral Glucose Tolerance Test
# Commercially available genetically obese impaired glucose tolerance rats (Crlj:ZUC-Lepr^fa/Lepr^fa rats, male, 11 weeks of age at the time of use, purchased from Charles River Laboratories Japan, Inc.)
# (2) Experimental Method and Results
# The rats were preliminarily reared for 2 weeks by feeding them laboratory chow (FR-2, Funabashi Farm Co., Ltd.) ad libitum. Then, the rats were fasted for 15 to 18 hours and used as test animals. A suspension was prepared such that the concentration of a test compound fell within a range from 0.075 to 0.25 mg/mL using a 0.5% solution of methyl cellulose (Wako Pure Chemical Industries, Ltd.). The test compound was orally administered by gavage to the rats (6 rats in each group) at a dose of 0.3 to 1 mg/kg. To the rats in the control group, a 0.5% solution of methyl cellulose was orally administered at a dose of 4 mL/kg. The oral glucose loading was performed such that a glucose solution (Otsuka Glucose Injection 50%, Otsuka Pharmaceutical Co., Ltd.) was orally administered at a dose of 2 g/kg after 30 minutes from administration of the test compound.
# The blood was collected from the tail vein of each rat, and the blood glucose level was measured after 30 minutes from the oral glucose loading using a fully automatic blood glucose meter (Glucoroder GXT, A& T Corporation), and the blood glucose lowering index (%) was calculated from the following equation.
# Blood glucose lowering index (%)=[1−(blood glucose level in test compound administration group)/(blood glucose level in control group)]×100
SMILES,inhibition in vivo at 0.3 mg/kg [%],inhibition in vivo at 1 mg/kg [%]
"CCO[C@@H](CC(=O)O)c1ccc(O[C@@H]2CCc3c(C4CC4)cccc32)cc1 [Example 64, (3S)-3-(4-{[(1R)-4-Cyclopropyl-2,3-dihydro-1H-inden-1-yl]oxy}phenyl)-3-ethoxypropionic acid]",30,–
"CCO[C@@H](CC(=O)O)c1ccc(O[C@@H]2CCc3c(C)cc(C)cc32)cc1 [Example 62, (3S)-3-(4-{[(1R)-4,6-Dimethyl-2,3-dihydro-1H-inden-1-yl]oxy}phenyl)-3-ethoxypropionic acid]",33,–
"CCO[C@@H](CC(=O)O)c1ccc(OCc2ccc(Cl)c(Cl)c2)cc1 [Example 16, (3S)-3-{4-[(3,4-Dichlorobenzyl)oxy]phenyl}-3-ethoxypropionic acid]",–,39
"CCO[C@@H](CC(=O)O)c1ccc(O[C@H]2CCc3c(Cl)cccc32)cc1 [Example 52, (3S)-3-(4-{[(1S)-4-Chloro-2,3-dihydro-1H-inden-1-yl]oxy}phenyl)-3-ethoxypropionic acid]",–,15
"CCO[C@@H](CC(=O)O)c1ccc(O[C@@H]2CCc3c(OC(F)(F)F)cccc32)cc1 [Example 63, (3S)-3-Ethoxy-3-(4-{[(1R)-4-(trifluoromethoxy)-2,3-dihydro-1H-inden-1-yl]oxy}phenyl)propionic acid]",–,45
"CCO[C@@H](CC(=O)O)c1ccc(O[C@@H]2COc3c(OC(F)(F)F)cccc32)cc1 [Example 55, (3S)-3-Ethoxy-3-(4-{[(3S)-7-(trifluoromethoxy)-2,3-dihydro-1-benzofuran-3-yl]oxy}phenyl)propionic acid]",38,–
"CCO[C@@H](CC(=O)O)c1ccc(O[C@@H]2COc3c2cccc3C(F)(F)F)cc1 [Example 60, (3S)-3-Ethoxy-3-(4-{[(3S)-7-(trifluoromethyl)-2,3-dihydro-1-benzofuran-3-yl]oxy}phenyl)propionic acid]",–,48
"CCOC(CC(=O)O)c1ccc(Oc2cc(Cl)ccc2Cl)cc1 (centres unmarked) [Example 25, 3-[4-(2,5-Dichlorophenoxy)phenyl]-3-ethoxypropionic acid]",–,39
"CCOC(CC(=O)O)c1ccc(Oc2ccc(C#N)c3ccccc23)cc1 (centres unmarked) [Example 23, 3-{4-[(4-Cyano-1-naphthyl)oxy]phenyl}-3-ethoxypropionic acid]",–,16
"CCO[C@@H](CC(=O)O)c1ccc(O[C@@H]2CCc3c(C(F)F)cccc32)cc1 [Example 59, (3S)-3-(4-{[(1R)-4-(Difluoromethyl)-2,3-dihydro-1H-inden-1-yl]oxy}phenyl)-3-ethoxypropionic acid]",32,–
"CCO[C@@H](CC(=O)O)c1ccc(O[C@@H]2CCc3c2cc(F)cc3C(F)(F)F)cc1 [Example 61, (3S)-3-Ethoxy-3-(4-{[(1R)-6-fluoro-4-(trifluoromethyl)-2,3-dihydro-1H-inden-1-yl]oxy}phenyl)-propionic acid]",34,–
"CCO[C@@H](CC(=O)O)c1ccc(O[C@@H]2CCc3c(C)cccc32)cc1 [Example 58, (3S)-3-Ethoxy-3-(4-{[(1R)-4-methyl-2,3-dihydro-1H-inden-1-yl]oxy}phenyl)propionic acid]",–,35
"CCOC(CC(=O)O)c1ccc(OCc2ccc(Cl)c(Cl)c2)cc1 (centres unmarked) [Example 1, 3-{4-[(3,4-Dichlorobenzyl)oxy]phenyl}-3-ethoxypropionic acid]",–,25
"CCOC(CC(=O)O)c1ccc(OCc2ccccc2C)cc1 (centres unmarked) [Example 20, 3-Ethoxy-3-{4-[(2-methylbenzyl)oxy]phenyl}propionic acid]",–,15
"CCO[C@@H](CC(=O)O)c1ccc(O[C@@H]2CCc3c2ccc(F)c3C(F)(F)F)cc1 [Example 56, (3S)-3-Ethoxy-3-(4-{[(1R)-5-fluoro-4-(trifluoromethyl)-2,3-dihydro-1H-inden-1-yl]oxy}phenyl)-propionic acid]",40,–
"CCO[C@@H](CC(=O)O)c1ccc(O[C@@H]2CCc3c(Cl)cccc32)cc1 [Example 50, (3S)-3-(4-{[(1R)-4-Chloro-2,3-dihydro-1H-inden-1-yl]oxy}phenyl)-3-ethoxypropionic acid]",–,38
"CCOC(CC(=O)O)c1ccc(OCc2ccc(C(F)(F)F)cc2)nc1 (centres unmarked) [Example 17, 3-Ethoxy-3-(6-{[4-(trifluoromethyl)benzyl]oxy}pyridin-3-yl)propionic acid]",–,38
"CCO[C@@H](CC(=O)O)c1ccc(OCc2ccc(C(F)(F)F)cc2)nc1 [Example 18, (3S)-3-Ethoxy-3-(6-{[4-(trifluoromethyl)benzyl]oxy}pyridin-3-yl)propionic acid]",–,35
"CCO[C@@H](CC(=O)O)c1ccc(OC2CCc3c2cccc3C(F)(F)F)cc1 (stereo partly drawn) [Example 53, (3S)-3-Ethoxy-3-(4-{[4-(trifluoromethyl)-2,3-dihydro-1H-inden-1-yl]oxy}phenyl)propionic acid]",–,41
"CCOC(CC(=O)O)c1ccc(Oc2cc(Cl)cc(Cl)c2)cc1 (centres unmarked) [Example 24, 3-[4-(3,5-Dichlorophenoxy)phenyl]-3-ethoxypropionic acid]",–,37
"CCO[C@@H](CC(=O)O)c1ccc(OCc2ccc(C(F)(F)F)cc2)cc1 [Example 49, (3S)-3-Ethoxy-3-(4-{[4-(trifluoromethyl)benzyl]oxy}phenyl)propionic acid]",–,37
"CCO[C@@H](CC(=O)O)c1ccc(O[C@@H]2CCc3c2cccc3C(F)(F)F)cc1 [Example 51, (3S)-3-Ethoxy-3-(4-{[(1R)-4-(trifluoromethyl)-2,3-dihydro-1H-inden-1-yl]oxy}phenyl)propionic acid]",–,42
"CCO[C@@H](CC(=O)O)c1ccc(O[C@@H]2CCc3c(CC)cccc32)cc1 [Example 57, (3S)-3-Ethoxy-3-(4-{[(1R)-4-ethyl-2,3-dihydro-1H-inden-1-yl]oxy}phenyl)propionic acid]",–,50
